pIC50: −log10 of the molar value.
Columns and labels:
Phospholipase A2 (PLA2) = biological target: T1, Phospholipase A2 (PLA2) (Rattus norvegicus, UniProt P14423); test: In vitro assay for inhibitors of Phospholipase A2 (PLA2); type: biochemical; conditions: PLA2 from aggregated purified rat platelets; 14C-phosphatidylcholine substrate; pH 7.2, 37°C, 30 minutes; read-out: (PLA2) Phospholipase A2 inhibition (I50)
T1 construct: obtained by aggregation of purified rat platelets; from tissue; host or cells: rat platelets (material obtained on aggregation)
T1 sequence (P14423 22-146): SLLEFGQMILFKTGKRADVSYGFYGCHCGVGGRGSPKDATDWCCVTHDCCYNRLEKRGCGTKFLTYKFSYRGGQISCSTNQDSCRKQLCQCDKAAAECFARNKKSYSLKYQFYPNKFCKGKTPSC
Text: (§1) Two assays have been developed to test the ability of the invented compounds on the activity of the phospholipases. In one protocol, a procedure is described for testing the inhibitory effects of these compounds on Phospholipase C (PLC), while the other protocol describes a means for testing the inhibitory effect of these compounds on Phospholipase A2 (P^LA2).
Protocol for In Vitro Assay for Inhibitors of Phospholipase A2 Assayed at oH 7.0 (PLA2)
The PLA2 employed in this screen is obtained by aggregation of purified rat platelets. In the enzyme assay phosphatidylcholine having ^14C-labeled palmitate residues at Rl and R2 is employed as substrate. PLA2 acts by cleaving the R2 fatty acid ester bond yielding free fatty acid and lysophosphatidyl choline as follows: [drawing 22]
Following completion of the reaction, the assay medium is acidified and extracted with hexane, which takes up unreacted substrate and free fatty acid product. The hexane extract is passed over a short silica gel column which retains 99% of the phosphatidyl choline. The ^14C-labeled palmitic acid is not retained (90% recovery in eluate) and is collected directly in scintillation counting vials. The released palmitic acid is conveniently quantitated by liquid scintillation spectrometry.
The compounds were tested at 100 uM in a buffer containing 0.3 mM unlabeled phosphatidylcholine (PC), 20-30,000 cpm of ^14C [PC], 100 mM NaCl, 1 mM CaCl2 and 50 mM Tris-HCL adjusted to pH 7.2 with 1 N NaOH. […] The reaction was initiated by addition of the enzyme and it was terminated 30 minutes later by the addition of 100 ml of 1 N HCL.
Following acidification, the complex was extracted with 2 ml of 2-propanol and 2 ml of hexane, vortexed, and allowed to stand until the phases separated. Free fatty acids (FFA) and some unreacted substrate were taken up in the isopropanol-saturated hexane. The hexane phase of the extraction mixture was transferred to a short silica gel column which retained unreacted PC but not the FFA. The column effluent was collected directly in scintillation vials. The columns were washed once with an additional 2 ml of hexane. The radiolabeled FFA were ^quantitated by liquid scintillation spectrometry.

Rat PMN 5-lipoxygenase = biological target: T2, Rat PMN 5-lipoxygenase (Rattus norvegicus, UniProt P12527); test: Protocol for detecting inhibitors of the lipoxygenase pathway (5-HETE formation in rat neutrophils); type: cell-based; conditions: suspension of rat neutrophils, 3 minutes at 30°C with [14C]-arachidonic acid and Calcium Ionophore A23187; net 5-HETE produced; read-out: Rat PMN 5-lipoxygenase inhibition (I50)
T2 construct: endogenous in cells; host or cells: rat neutrophils (PMN)
T2 sequence (P12527 1-673): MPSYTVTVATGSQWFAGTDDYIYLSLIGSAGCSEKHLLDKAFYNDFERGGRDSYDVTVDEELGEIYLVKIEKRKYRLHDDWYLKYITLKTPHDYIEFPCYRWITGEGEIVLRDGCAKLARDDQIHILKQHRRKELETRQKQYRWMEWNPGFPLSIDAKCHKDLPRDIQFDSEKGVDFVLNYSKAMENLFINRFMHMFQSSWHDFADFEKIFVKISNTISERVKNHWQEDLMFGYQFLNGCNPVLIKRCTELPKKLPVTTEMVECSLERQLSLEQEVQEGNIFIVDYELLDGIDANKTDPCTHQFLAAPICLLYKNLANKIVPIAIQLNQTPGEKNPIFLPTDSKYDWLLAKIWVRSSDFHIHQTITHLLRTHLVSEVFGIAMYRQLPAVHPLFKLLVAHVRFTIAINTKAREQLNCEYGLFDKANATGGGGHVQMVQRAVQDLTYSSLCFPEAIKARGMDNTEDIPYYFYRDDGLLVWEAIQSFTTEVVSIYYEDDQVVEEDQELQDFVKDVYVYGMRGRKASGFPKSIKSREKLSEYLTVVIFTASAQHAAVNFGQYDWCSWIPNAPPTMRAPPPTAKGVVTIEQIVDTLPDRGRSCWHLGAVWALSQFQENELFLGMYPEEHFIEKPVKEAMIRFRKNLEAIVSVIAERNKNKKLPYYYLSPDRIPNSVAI
Procedure: The following protocol describes an assay to detect inhibitors of the lipoxygenase pathway. Such inhibitors are believed to be capable of modulating the biosynthesis of the leukotrienes, a property believed to be useful in treating asthma and inflammatory disease states.
Protocol for Detecting Inhibitors of the Lipoxygenase Pathway
A suspension of rat neutrophils in buffer is incubated for 3 minutes at 30°C with [^14]-arachidonic acid (AA) and Calcium Ionophore A23'187. Citric acid (2M) is used to quench the reaction. Following the addition of a trace amount of (^3H)-5-HETE together with an excess of unlabeled 5-HETE to each tube, the mixture is extracted with chloroform/methanol. The organic layer is washed with dilute acid and an aliquot is transferred to glass tubes and dried. The residue is dissolved in a small volume of chloroform and an aliquot is spotted on silica gel TLC sheets, which are developed with an ethyl acetate/isooctane/water/acetic acid solvent system. The 5-HETE spots are visualized with iodine, cut out and placed in scintillation vials for counting. After adjusting for the extraction efficiency, the amount (pmole) of [^14C]-5-HETE in each of the tubes is quantitated by substracting the net pmoles of 5-HETE in the tubes containing buffer alone (blank) from the pmoles of 5-HETE in the tubes containing […]. The ability of the test compounds to modulate the activity of this enzyme is determined by a decrease or increase in the net amount of 5-HETE produced.

Phospholipase C (PLC) = test: In vitro assay for inhibitors of Phospholipase C (PLC); type: biochemical; conditions: PLC from aggregated purified rat platelets (CaCl2, ADP); 3H-phosphatidylinositol substrate; pH 9.0, 37°C, 10 minutes; read-out: (PLC) Phospholipase C inhibition (I50)
Text: as §1
Protocol for In Vitro Assay for Inhibitors of
The PLC employed in this screen is obtained by aggregation of purified rat platelets in the presence of CaCl2 and ADP. In the enzyme assay, phosphatidylinositol having ^3H-labeled arachidonate residues at R2 is employed as substrate. PLC acts by cleaving the phosphate ester bond yielding diglyceride as follows: [drawing 21] ^3H-Phosphatidylinosit-tol ^3H-diglyceride Inositol (cont.)
Following completion of the reaction, the assay medium is acidified and extracted with hexane which takes up unreacted substrate and diglvceride. The hexane extract is passed over a short silica gel column which retains 99% of the phosphatidylinositol. […] The diglyceride is conveniently quantitated by liquid scintillation spectrometry. […]
Following acidification, the samples were extracted with 2 ml of isopropyl alcohol and 2 ml of hexane, vortexed and allowed to stand until the phrases separate. […] The radiolabeled diglycerides were quantitated by liquid scintillation spectrometry.

pIC50 (Rat PMN 5-lipoxygenase)	SMILES	pIC50 (Phospholipase A2 (PLA2))	pIC50 (Phospholipase C (PLC))
5.00	CCCCCC(O)C=Cc1ccc(OCc2ccccc2)cc1OCc1ccccc1 (stereo not drawn) [Compound 23]	–	–
5.70	CC(O)C=Cc1ccc(OCc2ccccc2)c(OCc2ccccc2)c1 (stereo not drawn) [Compound 28]	–	–
5.64	CC(C)(C)C(O)C=Cc1ccc(OCc2ccccc2)c(OCc2ccccc2)c1 (stereo not drawn) [Compound 29]	–	–
5.15	CCCCCC(O)C=CC=Cc1ccc(OCc2ccccc2)cc1 (stereo not drawn) [Compound 32]	–	–
5.35	CC(C)(C)C(O)C=CC=Cc1ccc(OCc2ccccc2)cc1 (stereo not drawn) [Compound 34]	–	–
–	CN(C)CCC(O)C=Cc1ccc(OCc2ccccc2)cc1 (stereo not drawn) [Compound 37]	–	4.62
–	CC1CCCC(=Cc2ccc(OCc3ccccc3)cc2)C1O (stereo not drawn) [Compound 40]	3.77	–
5.85	OCC=Cc1ccc(OCc2ccccc2)cc1OCc1ccccc1 [Compound 42]	–	–

SMILES	pIC50 (Rat PMN 5-lipoxygenase)	pIC50 (Phospholipase A2 (PLA2))	pIC50 (Phospholipase C (PLC))
CC(O)C=Cc1ccc(OCc2ccccc2)cc1 [Compound 21, 4-(D-BenzyloxyDhenyl)-3-buten-2-ol]	5.82	3.92	–
CC(O)C=Cc1ccc(OCc2ccccc2)cc1OCc1ccccc1 (stereo not drawn) [Compound 22]	6.00	4.05	–
CC(C)(C)CC(O)C=Cc1ccc(OCc2ccccc2)cc1OCc1ccccc1 (stereo not drawn) [Compound 24]	6.52	4.00	–
CC(C)(C)C(O)C=Cc1ccc(OCc2ccccc2)cc1OCc1ccccc1 (stereo not drawn) [Compound 25]	5.96	4.10	–
CC(O)C=Cc1ccc(OC(c2ccccc2)c2ccccc2)cc1 (stereo not drawn) [Compound 39]	5.46	4.51	–

— patent EP0189142A2, “Arylalkoxyphenyl-allylic alcohols as agents for the treatment of hypersensitive ailments” (USV PHARMACEUTICAL CORPORATION, priority 1985, dated 1986)
